# Assay results: PMC10211317, “Identification of ARUK2002821 as an isoform-selective PI5P4Kα inhibitor” (RSC Medicinal Chemistry, 2023)
# Experiments:
# Test in all cases: Premier Screen kinase panel (MRC PPU)
# Type in all cases: biochemical
# SRPK1 = SRPK1 (Homo sapiens, UniProt Q96SB4); conditions: SRPK1 (Entrez SRPK1), read-out: Residual activity (%)
# Description: (§1) room temperature with shaking for 30 minutes. The kinase concentration in the eluates was measured by qPCR.
# (§2) using ADP-GloTM assay at the MRC PPU International Centre for Kinase Profiling, University of Dundee.
# (§3) Conducted by MRC PPU International Centre
# (§4) Conducted by MRC PPU International Centre for […]
# ERK2 = ERK2 (Homo sapiens, UniProt P28482); conditions: ERK2 (Entrez MAPK1), read-out: Residual activity (%)
# Description: as §1, §2, §3, §4
# HIPK2 = HIPK2 (Homo sapiens, UniProt Q9H2X6); conditions: HIPK2 (Entrez HIPK2), read-out: Residual activity (%)
# Description: as §1, §2, §3, §4
# CDK2-Cyclin A = CDK2-Cyclin A (Homo sapiens, UniProt P24941); conditions: CDK2-Cyclin A (Entrez CDK2 + CCNA2), read-out: Residual activity (%)
# Description: as §1, §2, §3, §4
# BRSK1 = BRSK1 (Homo sapiens, UniProt Q8TDC3); conditions: BRSK1 (Entrez BRSK1), read-out: Residual activity (%)
# Description: as §1, §2, §3, §4
# SIK3 = SIK3 (Homo sapiens, UniProt Q9Y2K2); conditions: SIK3 (Entrez SIK3), read-out: Residual activity (%)
# Description: as §1, §2, §3, §4
# PRK2 = PRK2 (Homo sapiens, UniProt Q16513); conditions: PRK2 (Entrez PKN2), read-out: Residual activity (%)
# Description: as §1, §2, §3, §4
# EPH-A4 = EPH-A4 (Homo sapiens, UniProt P54764); conditions: EPH-A4 (Entrez EPHA4), read-out: Residual activity (%)
# Description: as §1, §2, §3, §4
# EPH-B4 = EPH-B4 (Homo sapiens, UniProt P54760); conditions: EPH-B4 (Entrez EPHB4), read-out: Residual activity (%)
# Description: as §1, §2, §3, §4
# NEK2a = NEK2a (Homo sapiens, UniProt P51955); conditions: NEK2a (Entrez NEK2), read-out: Residual activity (%)
# Description: as §1, §2, §3, §4
# DYRK3 = DYRK3 (Homo sapiens, UniProt O43781); conditions: DYRK3 (Entrez DYRK3), read-out: Residual activity (%)
# Description: as §1, §2, §3, §4
# TIE2 = TIE2 (Homo sapiens, UniProt Q02763); conditions: TIE2 (Entrez TEK), read-out: Residual activity (%)
# Description: as §1, §2, §3, §4
# RSK1 = RSK1 (Homo sapiens, UniProt Q15418); conditions: RSK1 (Entrez RPS6KA1), read-out: Residual activity (%)
# Description: as §1, §2, §3, §4
# MAPKAP-K2 = MAPKAP-K2 (Homo sapiens, UniProt P49137); conditions: MAPKAP-K2 (Entrez MAPKAPK2), read-out: Residual activity (%)
# Description: as §1, §2, §3, §4
# EPH-B3 = EPH-B3 (Homo sapiens, UniProt P54753); conditions: EPH-B3 (Entrez EPHB3), read-out: Residual activity (%)
# Description: as §1, §2, §3, §4
# HER4 = HER4 (Homo sapiens, UniProt Q15303); conditions: HER4 (Entrez ERBB4), read-out: Residual activity (%)
# Description: as §1, §2, §3, §4
# p38b MAPK = p38b MAPK (Homo sapiens, UniProt Q15759); conditions: p38b MAPK (Entrez MAPK11), read-out: Residual activity (%)
# Description: as §1, §2, §3, §4
# TLK1 = TLK1 (Homo sapiens, UniProt Q9UKI8); conditions: TLK1 (Entrez TLK1), read-out: Residual activity (%)
# Description: as §1, §2, §3, §4
# EPH-B1 = EPH-B1 (Homo sapiens, UniProt P54762); conditions: EPH-B1 (Entrez EPHB1), read-out: Residual activity (%)
# Description: as §1, §2, §3, §4
# IRAK1 = IRAK1 (Homo sapiens, UniProt P51617); conditions: IRAK1 (Entrez IRAK1), read-out: Residual activity (%)
# Description: as §1, §2, §3, §4
# MST3 = MST3 (Homo sapiens, UniProt Q9Y6E0); conditions: MST3 (Entrez STK24), read-out: Residual activity (%)
# Description: as §1, §2, §3, §4
# PKD1 = PKD1 (Homo sapiens, UniProt Q15139); conditions: PKD1 (Entrez PKD1), read-out: Residual activity (%)
# Description: as §1, §2, §3, §4
# EPH-A2 = EPH-A2 (Homo sapiens, UniProt P29317); conditions: EPH-A2 (Entrez EPHA2), read-out: Residual activity (%)
# Description: as §1, §2, §3, §4
# TESK1 = TESK1 (Homo sapiens, UniProt Q15569); conditions: TESK1 (Entrez TESK1), read-out: Residual activity (%)
# Description: as §1, §2, §3, §4
# GCK = GCK (Homo sapiens, UniProt Q12851); conditions: read-out: Residual activity (%)
# Description: as §1, §2, §3, §4
# FGF-R1 = FGF-R1 (Homo sapiens, UniProt P11362); conditions: FGF-R1 (Entrez FGFR1), read-out: Residual activity (%)
# Description: as §1, §2, §3, §4
# PKCγ = PKCγ (Homo sapiens, UniProt P05129); conditions: read-out: Residual activity (%)
# Description: as §1, §2, §3, §4
# MAP4K3 = MAP4K3 (Homo sapiens, UniProt Q8IVH8); conditions: MAP4K3 (Entrez MAP4K3), read-out: Residual activity (%)
# Description: as §1, §2, §3, §4
# GSK3b = GSK3b (Homo sapiens, UniProt P49841); conditions: GSK3b (Entrez GSK3B), read-out: Residual activity (%)
# Description: as §1, §2, §3, §4
# IR = IR (Homo sapiens, UniProt P06213); conditions: IR (Entrez INSR), read-out: Residual activity (%)
# Description: as §1, §2, §3, §4
# MKK6 = MKK6 (Homo sapiens, UniProt P52564); conditions: MKK6 (Entrez MAP2K6), read-out: Residual activity (%)
# Description: as §1, §2, §3, §4
# Sequence of GSK3b (P49841 whole entry): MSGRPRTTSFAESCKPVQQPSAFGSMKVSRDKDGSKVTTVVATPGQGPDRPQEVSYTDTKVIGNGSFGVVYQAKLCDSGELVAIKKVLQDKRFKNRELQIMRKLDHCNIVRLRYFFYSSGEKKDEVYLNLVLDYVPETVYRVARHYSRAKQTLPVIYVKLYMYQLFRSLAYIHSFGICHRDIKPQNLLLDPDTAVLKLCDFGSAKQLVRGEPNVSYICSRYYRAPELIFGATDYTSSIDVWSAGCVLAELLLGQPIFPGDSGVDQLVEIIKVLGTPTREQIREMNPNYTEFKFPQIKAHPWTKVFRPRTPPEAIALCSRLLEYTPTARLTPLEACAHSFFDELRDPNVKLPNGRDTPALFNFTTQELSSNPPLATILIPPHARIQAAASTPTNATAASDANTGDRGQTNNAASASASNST
# Sequence of PRK2 (Q16513 whole entry): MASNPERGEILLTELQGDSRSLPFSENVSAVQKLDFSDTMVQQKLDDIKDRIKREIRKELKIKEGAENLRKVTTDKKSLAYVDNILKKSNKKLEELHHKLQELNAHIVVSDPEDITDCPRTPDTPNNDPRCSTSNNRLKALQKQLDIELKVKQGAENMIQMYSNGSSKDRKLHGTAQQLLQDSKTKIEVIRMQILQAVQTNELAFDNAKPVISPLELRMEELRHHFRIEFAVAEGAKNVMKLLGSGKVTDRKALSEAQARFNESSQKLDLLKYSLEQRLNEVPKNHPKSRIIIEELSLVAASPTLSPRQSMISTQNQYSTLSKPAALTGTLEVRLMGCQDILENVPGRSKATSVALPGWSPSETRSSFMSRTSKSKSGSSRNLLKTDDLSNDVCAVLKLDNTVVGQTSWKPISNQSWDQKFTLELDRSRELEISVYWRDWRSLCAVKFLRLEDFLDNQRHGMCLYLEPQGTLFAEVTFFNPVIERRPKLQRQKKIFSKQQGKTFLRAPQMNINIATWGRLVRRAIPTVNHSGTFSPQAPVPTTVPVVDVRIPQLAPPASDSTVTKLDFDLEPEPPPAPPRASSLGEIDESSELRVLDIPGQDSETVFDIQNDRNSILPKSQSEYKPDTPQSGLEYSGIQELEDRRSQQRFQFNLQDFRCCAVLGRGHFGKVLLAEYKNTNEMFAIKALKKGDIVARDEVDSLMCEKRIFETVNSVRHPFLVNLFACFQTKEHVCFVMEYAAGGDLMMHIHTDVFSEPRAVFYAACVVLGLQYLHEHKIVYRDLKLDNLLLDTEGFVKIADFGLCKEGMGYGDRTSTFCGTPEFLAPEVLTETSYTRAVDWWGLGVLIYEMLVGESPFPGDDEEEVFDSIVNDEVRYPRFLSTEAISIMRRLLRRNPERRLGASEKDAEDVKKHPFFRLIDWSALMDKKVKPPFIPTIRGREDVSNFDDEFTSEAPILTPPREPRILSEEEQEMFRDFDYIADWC
# Sequence of SIK3 (Q9Y2K2 whole entry): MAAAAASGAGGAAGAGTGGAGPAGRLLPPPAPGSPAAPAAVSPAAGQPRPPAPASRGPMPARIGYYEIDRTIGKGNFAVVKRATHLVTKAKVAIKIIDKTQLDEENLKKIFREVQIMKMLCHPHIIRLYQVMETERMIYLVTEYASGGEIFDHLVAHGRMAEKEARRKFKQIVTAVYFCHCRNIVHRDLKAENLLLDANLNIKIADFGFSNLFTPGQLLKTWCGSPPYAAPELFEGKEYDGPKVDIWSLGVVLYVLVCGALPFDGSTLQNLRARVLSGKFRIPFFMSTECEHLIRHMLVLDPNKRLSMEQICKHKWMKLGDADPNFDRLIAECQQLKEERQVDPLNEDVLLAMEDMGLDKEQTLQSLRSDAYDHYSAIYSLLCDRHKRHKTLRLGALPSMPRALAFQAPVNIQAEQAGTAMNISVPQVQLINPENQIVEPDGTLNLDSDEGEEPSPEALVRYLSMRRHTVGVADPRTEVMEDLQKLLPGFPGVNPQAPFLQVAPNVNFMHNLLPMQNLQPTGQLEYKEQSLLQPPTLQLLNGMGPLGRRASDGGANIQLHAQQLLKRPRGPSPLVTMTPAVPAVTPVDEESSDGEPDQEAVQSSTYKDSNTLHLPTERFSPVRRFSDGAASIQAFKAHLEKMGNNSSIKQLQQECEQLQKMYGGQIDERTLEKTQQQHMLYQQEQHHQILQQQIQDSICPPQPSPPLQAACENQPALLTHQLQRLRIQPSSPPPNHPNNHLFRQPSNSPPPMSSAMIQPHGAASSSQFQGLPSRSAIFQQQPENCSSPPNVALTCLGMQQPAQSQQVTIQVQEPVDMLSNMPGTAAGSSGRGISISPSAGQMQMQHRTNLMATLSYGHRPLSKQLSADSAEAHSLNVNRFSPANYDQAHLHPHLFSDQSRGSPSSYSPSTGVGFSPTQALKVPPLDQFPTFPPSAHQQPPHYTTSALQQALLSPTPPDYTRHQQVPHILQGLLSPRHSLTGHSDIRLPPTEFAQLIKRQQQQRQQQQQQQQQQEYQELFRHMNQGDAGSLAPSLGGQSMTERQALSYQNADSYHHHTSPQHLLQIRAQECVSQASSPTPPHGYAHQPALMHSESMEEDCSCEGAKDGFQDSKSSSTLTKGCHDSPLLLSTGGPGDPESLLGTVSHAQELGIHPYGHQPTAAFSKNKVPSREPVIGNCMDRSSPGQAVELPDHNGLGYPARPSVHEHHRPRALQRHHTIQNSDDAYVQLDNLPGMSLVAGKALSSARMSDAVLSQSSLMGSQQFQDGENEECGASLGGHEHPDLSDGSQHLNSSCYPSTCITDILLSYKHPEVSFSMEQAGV
# Sequence of HIPK2 (Q9H2X6 whole entry): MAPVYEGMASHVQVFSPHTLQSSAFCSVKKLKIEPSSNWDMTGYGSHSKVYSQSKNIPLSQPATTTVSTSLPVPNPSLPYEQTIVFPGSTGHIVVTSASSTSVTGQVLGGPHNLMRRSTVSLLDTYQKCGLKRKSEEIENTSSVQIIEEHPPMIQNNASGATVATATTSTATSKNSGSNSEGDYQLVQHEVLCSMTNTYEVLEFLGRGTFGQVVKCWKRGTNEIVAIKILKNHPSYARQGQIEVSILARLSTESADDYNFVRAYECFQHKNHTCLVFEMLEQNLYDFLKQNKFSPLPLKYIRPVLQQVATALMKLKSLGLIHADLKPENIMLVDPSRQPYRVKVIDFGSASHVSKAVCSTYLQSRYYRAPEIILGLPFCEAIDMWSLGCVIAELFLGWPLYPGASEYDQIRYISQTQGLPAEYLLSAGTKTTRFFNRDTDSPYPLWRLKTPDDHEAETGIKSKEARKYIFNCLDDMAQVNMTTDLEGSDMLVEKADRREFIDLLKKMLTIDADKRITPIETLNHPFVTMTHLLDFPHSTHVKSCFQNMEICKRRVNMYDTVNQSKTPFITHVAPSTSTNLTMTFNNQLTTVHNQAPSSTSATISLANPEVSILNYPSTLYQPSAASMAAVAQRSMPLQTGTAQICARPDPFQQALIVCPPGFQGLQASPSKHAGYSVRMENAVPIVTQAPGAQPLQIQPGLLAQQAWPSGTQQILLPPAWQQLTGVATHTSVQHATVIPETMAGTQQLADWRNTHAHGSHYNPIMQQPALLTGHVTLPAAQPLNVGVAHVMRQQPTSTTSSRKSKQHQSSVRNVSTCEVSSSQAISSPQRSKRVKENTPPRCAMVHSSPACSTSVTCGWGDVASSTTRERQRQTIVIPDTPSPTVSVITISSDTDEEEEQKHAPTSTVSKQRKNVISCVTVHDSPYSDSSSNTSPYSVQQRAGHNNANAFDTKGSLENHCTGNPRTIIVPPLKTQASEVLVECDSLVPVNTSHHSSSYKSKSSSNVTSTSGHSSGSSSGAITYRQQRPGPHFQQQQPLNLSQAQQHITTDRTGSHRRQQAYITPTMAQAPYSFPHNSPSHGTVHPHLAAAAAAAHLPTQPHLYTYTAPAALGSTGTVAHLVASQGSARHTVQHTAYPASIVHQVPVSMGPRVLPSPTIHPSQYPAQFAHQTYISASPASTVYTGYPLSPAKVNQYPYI
# Sequence of MST3 (Q9Y6E0 whole entry, species assumed): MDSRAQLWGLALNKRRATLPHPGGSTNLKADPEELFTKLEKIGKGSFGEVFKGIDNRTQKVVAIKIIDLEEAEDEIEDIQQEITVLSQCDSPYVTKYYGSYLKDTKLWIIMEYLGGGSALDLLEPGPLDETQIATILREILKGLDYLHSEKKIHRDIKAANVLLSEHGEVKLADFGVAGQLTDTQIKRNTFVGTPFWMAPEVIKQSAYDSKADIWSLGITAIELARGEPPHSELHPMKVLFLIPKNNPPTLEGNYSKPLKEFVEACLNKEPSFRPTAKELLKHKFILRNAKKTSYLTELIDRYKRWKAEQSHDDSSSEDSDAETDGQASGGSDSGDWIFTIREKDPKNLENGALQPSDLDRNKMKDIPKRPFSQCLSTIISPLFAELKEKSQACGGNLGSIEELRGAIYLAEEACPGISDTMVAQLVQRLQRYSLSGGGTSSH
# Sequence of TESK1 (Q15569 whole entry): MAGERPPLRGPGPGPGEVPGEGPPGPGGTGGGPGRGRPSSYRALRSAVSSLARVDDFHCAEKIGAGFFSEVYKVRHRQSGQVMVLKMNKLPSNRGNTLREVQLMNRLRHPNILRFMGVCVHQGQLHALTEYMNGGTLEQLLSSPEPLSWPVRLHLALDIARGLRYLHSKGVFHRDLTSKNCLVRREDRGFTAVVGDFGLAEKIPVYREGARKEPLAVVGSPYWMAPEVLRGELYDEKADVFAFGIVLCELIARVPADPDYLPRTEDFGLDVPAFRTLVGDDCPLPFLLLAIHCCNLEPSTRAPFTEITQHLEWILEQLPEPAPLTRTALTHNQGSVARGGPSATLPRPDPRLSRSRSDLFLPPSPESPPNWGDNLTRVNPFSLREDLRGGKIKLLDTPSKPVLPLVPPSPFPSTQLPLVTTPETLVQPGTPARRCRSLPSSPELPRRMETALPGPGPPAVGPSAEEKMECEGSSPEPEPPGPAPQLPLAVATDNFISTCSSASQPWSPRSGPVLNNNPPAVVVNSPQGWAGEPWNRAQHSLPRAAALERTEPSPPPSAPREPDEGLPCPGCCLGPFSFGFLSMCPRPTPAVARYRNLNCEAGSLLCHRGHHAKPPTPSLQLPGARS
compound,measurement,setting,value
COc1ccc(Nc2ncnc3c2ccn3-c2ccc(C)c(C)c2)cc1Cl [compound 36],remaining activity at 1 µM,SRPK1,99%
same,remaining activity at 1 µM,ERK2,110%
same,remaining activity at 1 µM,HIPK2,90%
same,remaining activity at 1 µM,CDK2-Cyclin A,100%
same,remaining activity at 1 µM,BRSK1,97%
same,remaining activity at 1 µM,SIK3,123%
same,remaining activity at 1 µM,PRK2,86%
same,remaining activity at 1 µM,EPH-A4,101%
same,remaining activity at 1 µM,EPH-B4,99%
same,remaining activity at 1 µM,NEK2a,86%
same,remaining activity at 1 µM,DYRK3,68%
same,remaining activity at 1 µM,TIE2,105%
same,remaining activity at 1 µM,RSK1,109%
same,remaining activity at 1 µM,MAPKAP-K2,109%
same,remaining activity at 1 µM,EPH-B3,79%
same,remaining activity at 1 µM,HER4,80%
same,remaining activity at 1 µM,p38b MAPK,103%
same,remaining activity at 1 µM,TLK1,96%
same,remaining activity at 1 µM,EPH-B1,126%
same,remaining activity at 1 µM,IRAK1,98%
same,remaining activity at 1 µM,MST3,124%
same,remaining activity at 1 µM,PKD1,93%
same,remaining activity at 1 µM,EPH-A2,83%
same,remaining activity at 1 µM,TESK1,88%
same,remaining activity at 1 µM,GCK,105%
same,remaining activity at 1 µM,FGF-R1,95%
same,remaining activity at 1 µM,PKCγ,107%
same,remaining activity at 1 µM,MAP4K3,92%
same,remaining activity at 1 µM,GSK3b,102%
same,remaining activity at 1 µM,IR,108%
same,remaining activity at 1 µM,MKK6,115%
